We go through three compounds from patent publication US6608004B2, “Substituted 2-aryl-1,2,4-triazine-3,5-di(thi)ones” (priority 1999, dated 2003).

Data set [1] in a line: logP determination by HPLC, reversed-phase column (C 18), EEC Directive 79/831 Annex V.A8. The following applies: pH 2. The text has this: (a) Mobile phases for the determination in the acidic range: 0.1% aqueous phosphoric acid, acetonitrile; linear gradient from 10% acetonitrile to 90% acetonitrile—the corresponding measurement results are labelled in Table 1 with ^a).
(b) Mobile phases for the determination in the neutral range: 0.01 molar aqueous phosphate buffer solution, acetonitrile; linear gradient from 10% acetonitrile to 90% acetonitrile—the corresponding measurement results are labelled in Table 1 with ^b).

Data set [2] has as its system weeds. In words: Post-Emergence Test (Example B), activity against weeds. The format is in vivo. The following applies: test plants of a height of 5-15 cm sprayed, rated after three weeks. The text has this:
(§1) Solvent: 5 parts by weight of acetone
(§2) Emulsifier: 1 part by weight of alkylaryl polyglycol ether
(§3) After three weeks, the degree of damage to the plants is rated in % damage in comparison to the development of the untreated control.

The subject of data set [3] is weeds. Put plainly: Pre-Emergence Test (Example A), activity against weeds. The format is in vivo. Particulars: soil sprayed about 24 hours after sowing, rated after three weeks.
Description: as §1, §2
(§4) Seeds of the test plants are sown in normal soil.
0%=no effect (like untreated control)

Data set [4] relates to crop plants, such as, for example, barley and wheat. In words: Post-Emergence Test (Example B), tolerance by crop plants. Particulars: post-emergence; barley and wheat; rated after three weeks.
Description: as §1, §2, §3

The subject of data set [5] is crop plants, such as, for example, barley, wheat, rapeseed, soya and sugar beet. In words: Pre-Emergence Test (Example A), tolerance by crop plants. The format is in vivo. Particulars: pre-emergence; barley, wheat, rapeseed, soya and sugar beet; rated after three weeks.
Description: as §1, §2, §4

[6] abbreviates: reversed-phase HPLC column (C 18).

In turn, `CCS(=O)(=O)Nc1cc(-n2ncc(=O)n(C)c2=O)c(F)cc1C#N` [Example (II-1), 2-(2-fluoro-4-cyano-5-ethylsulphonylamino-phenyl)-4-methyl-1,2,4-triazine-3,5(2H,4H)-dione] showed a melting point of 233 °C. The compound further gave a chromatographic logP in data set [1] (setting [6]) of 1.66.

In turn, `C=CC(=O)N(c1cc(-n2ncc(=O)n(C)c2=O)c(F)cc1C#N)S(=O)(=O)CC` [Example 2, 2-[5-(N-acryloyl-N-ethylsulphonylamino)-4-cyano-2-fluoro-phenyl]-4-methyl-1,2,4-triazine-3,5(2H,4H)-dione] yielded a melting point of 118 °C. Moreover, the “activity against weeds (degree of damage)” value in the data set on weeds [2] is reported as “very strong activity”. Also, the “activity against weeds (degree of damage)” value in the data set with weeds [3] is reported as “very strong activity”. In data set [1] (setting [6]), the chromatographic logP came out at 1.97. The “tolerance by crop plants” value in data set [4] is “essentially being tolerated well”. In addition, the “tolerance by crop plants” value in data set [5] is “essentially being tolerated well”.

For `CCS(=O)(=O)N(C(=O)Oc1ccccc1)c1cc(-n2ncc(=O)n(C)c2=O)c(F)cc1C#N` [Example 1, 2-[5-(N-phenoxy-carbonyl-N-ethylsulphonylamino)-4-cyano-2-fluoro-phenyl]-4-methyl-1,2,4-triazine-3,5(2H,4H)-dione], the melting point was found to be 181 °C. For the same compound, the chromatographic logP in data set [1] amounted to 2.76.

What is called melting point is the temperature of the solid-liquid transition. What is called chromatographic logP is a lipophilicity value derived from retention on a column. Low readings indicate lower lipophilicity, high ones higher lipophilicity.
